From PubChem BioAssay AID256 (DTP/NCI, 2004)
Toxic doses and inconclusive results are not listed. The calls were made as follows: active = survival T/C of 150% or more; inactive = T/C below 125% in these data.

System: CD2F1 mice, L1210 leukemia ip, survival T/C
Assay: NCI In Vivo Anticancer Drug Screen. Data for tumor model L1210 Leukemia (intraperitoneal) in CD2F1 (CDF1) mice
Conditions: endpoint: mean survival time, higher = longer survival
Summary of the method: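 In this screen, transplantable tumors were grown in mice given either the compound or its vehicle. Results were expressed as the treated measurement relative to the control measurement.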

Measured: T/C

COc1cccc(C=Nc2ccc(C)cc2)c1O.COc1cccc(C=Nc2ccc(C)cc2)c1O.[Co]
inactive: dose: 25.0 mg/kg/injection, schedule: Q04DX003 (ip), vehicle: saline with Tween-80 91 % of control | dose: 50.0 mg/kg/injection, schedule: Q04DX003 (ip), vehicle: saline with Tween-80 88 % of control | dose: 50.0 mg/kg/injection, schedule: Q04DX003 (ip), vehicle: saline 102 % of control | dose: 100.0 mg/kg/injection, schedule: Q04DX003 (ip), vehicle: saline with Tween-80 94 % of control | dose: 100.0 mg/kg/injection, schedule: Q04DX003 (ip), vehicle: saline 98 % of control | dose: 200.0 mg/kg/injection, schedule: Q04DX003 (ip), vehicle: saline with Tween-80 94 % of control | dose: 200.0 mg/kg/injection, schedule: Q04DX003 (ip), vehicle: saline 96 % of control | dose: 400.0 mg/kg/injection, schedule: Q04DX003 (ip), vehicle: saline with Tween-80 99 % of control | dose: 400.0 mg/kg/injection, schedule: Q04DX003 (ip), vehicle: saline 98 % of control

C[C@H](C[P+](c1ccccc1)(c1ccccc1)c1ccccc1)[C@](OC(=O)c1ccccc1)(C(=O)c1ccccc1)c1ccccc1
inactive: dose: 1.25 mg/kg/injection, schedule: Q01DX009 (ip), vehicle: saline with Tween-80 101 % of control | dose: 2.5 mg/kg/injection, schedule: Q01DX009 (ip), vehicle: saline with Tween-80 98 % of control | dose: 5.0 mg/kg/injection, schedule: Q01DX001 (ip), vehicle: saline with Tween-80 103 % of control | dose: 5.0 mg/kg/injection, schedule: Q01DX009 (ip), vehicle: saline with Tween-80 98 % of control

CCOC(=O)c1cc(OC(C)=O)c2c(ccc3ccccc32)c1C
inactive: dose: 100.0 mg/kg/injection, schedule: Q04DX003 (ip), vehicle: Klucel (hydroxypropylcellulose) (HPC) 101 % of control | dose: 200.0 mg/kg/injection, schedule: Q04DX003 (ip), vehicle: Klucel (hydroxypropylcellulose) (HPC) 104 % of control | dose: 400.0 mg/kg/injection, schedule: Q04DX003 (ip), vehicle: Klucel (hydroxypropylcellulose) (HPC) 97 % of control
